How the values were obtained:
Assay type in all cases: cell-based
Staphylococcus carnosus = assay: TAPS (Trans Acting Peptide System) assay, radial diffusion read-out; set-up: key: classified as 4>3>2>1; whereas 4 is better than 1; classified as 4>3>2>1; classified as 4>3>2>1; wildtype activity corresponds to 1; conditions: peptide expressed in E. coli
Procedure: A range of antimicrobial polypeptides, which are variants of SEQ ID NO: 1, were tested in the TAPS assay. TAPS may be used to identify new or improved genes encoding peptides that can kill or inhibit the growth of target cells (see PCT application WO 2004/033715). The TAPS assay, an acronym for Trans Acting Peptide System, is based on having a sensitive host producing a peptide followed by screening for its activity in trans against an indicator strain. The advantage of this system is based on that the antimicrobial peptide is expressed in the Gram-negative bacterium E. coli and its antimicrobial activity can be monitored on different microbes including Gram-negatives, positives or fungi. Additionally, TAPS offers the possibility to produce correctly folded AMPs containing disulfide bonds in the host cells, thereby retaining their antimicrobial activities.
The TAPS approach requires first, that expression of the peptide is under control of an inducible promoter with tight regulation, because the host cells are sensitive to the peptide when producing it. Secondly, the produced peptide has to be released to the media so that it can interact with the target organism.
The TAPS screening can be carried out either in solid or liquid media. On solid media, a plasmid library is initially introduced into E. coli host cells. […] In the next step, the filter containing the colonies is transferred to LB growth medium containing inducer (0.1% arabinose) to permit peptide synthesis. Subsequently, the target strain, for example S. carnosus, is overlaid onto the plate and allowed to grow for 12-16 hours at 37° C. Finally, visual inspection of the host cells capable of reducing the proliferation of the target cells is performed and the nucleotide sequence encoding for the antimicrobial peptide is recovered from the host cells. DNA sequence analysis of the variants is obtained to elucidate the nature of the peptide.
As mentioned above, the TAPS screening can also be performed using liquid medium. This procedure requires the use of robotics to analyze large number of clones. In this system, the host E. coli origami cells are transformed with the plasmid library and plated out on LB medium+0.2% glucose+ampicillin (200 mg/L). Independent colonies are then inoculated into 96 or 384-well plates containing 200 micro-L of TB medium+ampicillin (200 mg/L) and cultured overnight at 37° C. These cultures are then replicated robotically and grown to exponential phase until inducer (0.1% arabinose) is added to trigger peptide synthesis. The next step consists in hydrolyzing the cells such that the peptide is released to the media by hot acid hydrolysis. This treatment consists on adding 1 M sodium Phosphate buffer pH 2.3 to obtain a final pH approximately of 2.3 and incubating the cultures overnight at 80° C. Next day, a 25 micro-L aliquot of the hydrolyzed cultures is used to perform an activity test against the desired target organisms. The activity test performed was a Radial Diffusion Assay (RDA) where an aliquot of the hydrolyzed cultures was added to the agarose media inoculated with the target strain, S. carnosus. […] Measurements of the diameter of the clearing zones were performed to quantify the potency of the antimicrobial activity of the peptides.
The antimicrobial activity (against Staphylococcus carnosus) of the tested plectasin variants, which was measured using the TAPS assay, is shown in table 3. The antimicrobial activity corresponds to the clearing zone size and has been classified as 4>3>2>1; whereas 4 is better than 1, and wildtype activity corresponds to 1.

[1] = system: panel of 6 different strains of Staphylococcus aureus; assay: Average MIC, NCCLS/CLSI guidelines using caMHB (Example 6); conditions: average over 6 S. aureus strains, duplicate; MIC above 32 counted as 64; read after 18-24 hours at 37° C.
Outline: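 MICs were determined by broth dilution per NCCLS/CLSI in caMHB against six S. aureus strains (four MSSA, two MRSA), with peptides at 0.03–32 microgram/mL, read after 18-24 h at 37° C. Each was tested in duplicate and the two results averaged; MICs above 32 micrograms/mL were counted as 64.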

[2] = system: Staphylococcus aureus, MRSA ST5 (2001); assay: MIC, NCCLS/CLSI guidelines (Example 5), strain D; conditions: relative to wildtype Plectasin; average of two independent experiments
Outline: (§1)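 MICs of purified plectasin peptides are measured according to NCCLS/CLSI guidance. Each value averages duplicate independent experiments and is given as a category relative to wild-type: 0 above 100%, 1 80-100%, 2 50-80%, 3 below 50%.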

[3] = system: Staphylococcus aureus, ATCC 29737; assay: MIC, NCCLS/CLSI guidelines (Example 5), strain C; conditions: relative to wildtype Plectasin; average of two independent experiments
Outline: (§2)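 Relative MIC category versus wild-type plectasin (0 >100%, 1 80-100%, 2 50-80%, 3 <50%), mean of two experiments. Determined per CLSI broth guidelines with expressed, purified peptides.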

[4] = system: Staphylococcus aureus, ATCC 29213; assay: MIC, NCCLS/CLSI guidelines (Example 5), strain A; conditions: relative to wildtype Plectasin; average of two independent experiments
Outline: as §2

[5] = system: Staphylococcus aureus, ATCC 25923; assay: MIC, NCCLS/CLSI guidelines (Example 5), strain B; conditions: relative to wildtype Plectasin; average of two independent experiments
Procedure: Plectasin wild-type (SEQ ID NO: 1) and several variants of Plectasin were expressed and purified. The Minimal Inhibitory Concentration (MIC) was determined to test for their antimicrobial activity following the NCCLS guidelines from CLSI (Clinical and Laboratory Standards Institute; formerly known as National Committee for Clinical and Laboratory Standards).
The peptides were tested against the following strains: • A: Staphylococcus aureus, ATCC 29213; • B: Staphylococcus aureus, ATCC 25923; • C: Staphylococcus aureus, ATCC 29737; • D: Staphylococcus aureus, MRSA ST5 (2001), multi-resistant clinical human isolate from Statens Serum Institut, Denmark; • E: Staphylococcus aureus, MRSA ST80 (2003), multi-resistant clinical human isolate from Statens Serum Institut, Denmark.
All MIC values represent an average of two independent experiments; and all results in Table 5 are expressed relative to wildtype Plectasin:
0: >100% of Plectasin wildtype MIC; 1: 80-100% of Plectasin wildtype MIC; 2: 50-80% of Plectasin wildtype MIC; 3: <50% of Plectasin wildtype MIC.

[6] = system: Staphylococcus aureus, MRSA ST80 (2003); assay: MIC, NCCLS/CLSI guidelines (Example 5), strain E; conditions: relative to wildtype Plectasin; average of two independent experiments
Outline: as §1

[7] = system: Staphylococcus carnosus ATCC51365; assay: Yeast screening assay: radial diffusion assay of yeast supernatants; set-up: key: An activity of 3 is better than Plectasin; An activity of 2 corresponds to the activity of Plectasin; 1 is worse than Plectasin; conditions: yeast supernatant, clearing zone in radial diffusion assay
Outline: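 Supernatants from S. cerevisiae expressing plectasin variants, grown 3 days at 30 °C in galactose medium, were applied to agarose containing 5×10^5 cfu/mL S. carnosus. Plates were incubated 3 h at 37 °C, overlaid, left overnight and MTT-stained. Clearing zones were scored as 2 = plectasin-like, 3 = better, 1 = worse.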

Sequence | Activity (antimicrobial activity, clearing zone size) (Staphylococcus carnosus) | Average MIC [1] [micrograms/mL] | other results
GFGCNGPWDEDDMRCHNHCKSIKGYKGGYCAKGGFICKCY [Q14R + V36I] | 4 | – | –
GFGCNGPWDEDDKQCHRHCKSIKGYKGGYCAKGGFVCKCYR [M13K + N17R + Y40YR] | 3 | 8 | –
GFGCNGPWDEDDMQCHNHCKSIKGYRGGYCAKGGFVCKCY [Mutation K26R] | 3 | 15 | –
GFGCNGPWDEDDKQCHNHCKSIKGYRGGYCAKGGFVCKCY [M13K + K26R] | 4 | 10 | –
GFGCNGPWDEDDMQCHIHCKSIKGYKGGYCAKGGFVCKCY [Mutation N17I] | 2 | 14 | –
GFGCNGPWDEDDMQCHNHCRSIKGYKGGYCAKGGFVCKCY [Mutation K20R] | 2 | – | –
GFGCNGPWDEDDKQCHRHCKSIKGYKGGYCAKGGFVCKCY [M13K + N17R] | 3 | – | –
GFGCNGPWDEDDMQCHNHCKFIKGYKGGYCTKGGFVCKCY [S21F + A31T] | 2 | – | –
GFGCYGPWDEDDMLCHNHCKSIKGYKGGYCAKGGFVCKCY [N5Y + Q14L] | 2 | – | –
GFGCNGPWDEDDKQCHNHCKSIKGYKGGYCAKGGFVCKCY [Mutation M13K] | 3 | 12 | –
GFGCNGPWDEDDMRCHNHCKSIKGYKGGYCAKGGFVCKCY [Mutation Q14R] | 4 | 5 | Relative MIC, strain D [2]: 3 (<50% of Plectasin wildtype MIC); Relative MIC, strain C [3]: 3 (<50% of Plectasin wildtype MIC); Relative MIC, strain A [4]: 2 (50-80% of Plectasin wildtype MIC); Relative MIC, strain B [5]: 3 (<50% of Plectasin wildtype MIC); Relative MIC, strain E [6]: 0 (>100% of Plectasin wildtype MIC)
GFGCNGPWDEGDKQCHNHCKSIKGYRGGYCAKGGFVCKCY [D11G + M13K + K26R] | 3 | – | –
GFGCNGPWDEGDMQCHNHCKSIKGYKGGYCARGGFVCKCY [D11G + K32R] | – | 5 | Relative MIC, strain D [2]: 2 (50-80% of Plectasin wildtype MIC); Relative MIC, strain C [3]: 3 (<50% of Plectasin wildtype MIC); Relative MIC, strain A [4]: 1 (80-100% of Plectasin wildtype MIC); Relative MIC, strain B [5]: 3 (<50% of Plectasin wildtype MIC); Relative MIC, strain E [6]: 3 (<50% of Plectasin wildtype MIC); Activity (antimicrobial activity relative to the activity of plectasin) [7]: 3
GFGCNGPWDEDDMRCHNHCKSIRGYRGGYCAKGGFVCKCY [Q14R + K23R + K26R] | – | 2 | Relative MIC, strain D [2]: 3 (<50% of Plectasin wildtype MIC); Relative MIC, strain C [3]: 3 (<50% of Plectasin wildtype MIC); Relative MIC, strain A [4]: 3 (<50% of Plectasin wildtype MIC); Relative MIC, strain B [5]: 3 (<50% of Plectasin wildtype MIC); Relative MIC, strain E [6]: 3 (<50% of Plectasin wildtype MIC); Activity (antimicrobial activity relative to the activity of plectasin) [7]: 2
GFGCNGPWDEDDMRCHNHCKSIKGYRGGYCAKGGFVCKCY [Q14R + K26R] | 4 | 5 | –
GFGCKGPWDEDDMQCHNHCKSIKGYKGGYCAKGGFVCKCY [Mutation N5K] | 2 | 12 | –
GFGCKGPWDEDDMQCHNHCKSIKGYRGGYCAKGGFVCKCY [N5K + K26R] | – | 9 | Relative MIC, strain D [2]: 2 (50-80% of Plectasin wildtype MIC); Relative MIC, strain C [3]: 3 (<50% of Plectasin wildtype MIC); Relative MIC, strain A [4]: 1 (80-100% of Plectasin wildtype MIC); Relative MIC, strain B [5]: 2 (50-80% of Plectasin wildtype MIC); Relative MIC, strain E [6]: 2 (50-80% of Plectasin wildtype MIC); Activity (antimicrobial activity relative to the activity of plectasin) [7]: 3
GFGCNGPWDEDDMQCHYHCKSIKGYKGGYCAKGGFVCKCY [Mutation N17Y] | 3 | 6 | Relative MIC, strain D [2]: 2 (50-80% of Plectasin wildtype MIC); Relative MIC, strain C [3]: 3 (<50% of Plectasin wildtype MIC); Relative MIC, strain A [4]: 1 (80-100% of Plectasin wildtype MIC); Relative MIC, strain B [5]: 3 (<50% of Plectasin wildtype MIC); Relative MIC, strain E [6]: 2 (50-80% of Plectasin wildtype MIC)
GFGCYGPWDEDDMQCHNHCKSIKGYKGGYCAKGGFVCKCY [Mutation N5Y] | 2 | – | –
GFGCNGPWDENDMQCHNHCKFIKGYKGGYCAKGGFVCKCY [D11N + S21F] | 4 | – | –
GFGCNGPWDENDMQCHNHCKSIKGYKGGYCAKGGFVCKCY [Mutation D11N] | – | 6 | Relative MIC, strain D [2]: 2 (50-80% of Plectasin wildtype MIC); Relative MIC, strain C [3]: 2 (50-80% of Plectasin wildtype MIC); Relative MIC, strain A [4]: 2 (50-80% of Plectasin wildtype MIC); Relative MIC, strain B [5]: 3 (<50% of Plectasin wildtype MIC); Relative MIC, strain E [6]: 3 (<50% of Plectasin wildtype MIC); Activity (antimicrobial activity relative to the activity of plectasin) [7]: 3
GFGCNGPWDEDDMQCHHHCKSIKGYKGGYCAKGGFVCKCY [Mutation N17H] | 4 | – | –
GFGCNGPWDEDDMRCHNHCKSIKGYKGGYCAKGGFVCKCYR [Q14R + Y40YR] | 3 | – | –
GFGCNGPWDEDDMQCHRHCKSIKGYKGGYCAKGGFVCKCYR [N17R + Y40YR] | 3 | – | –
GFGCNGPWDEDDMLCHNHCKSIKGYKGGYCAKGGFVCKCY [Mutation Q14L] | 4 | 13 | –
